Literature values as cited in paper PMC11436104 (Toxins, 2024).

Tested on: rat primary astrocytes
Settings: cited from earlier work

For MC-LF, the “cytotoxicity in rat primary astrocytes” value is listed as “selective cytotoxicity”.
